Measurements reported in article PMC12867150, “A fungi-derived cyclic peptide enhances Th9-mediated antitumor immunity by targeting ZAP70 and SREBP1” (The Journal of Clinical Investigation, 2025).
Several values for one entry are separate records, joined by “and”; a condition that tells them apart may be missing. Equal entries are not always repeated.

Columns and labels:
Assay type in all cases: cell-based, mouse
Th9 cells [1] = assay: Th9 differentiation, dose response, IL-9+ cells by flow cytometry (Figure 1D); design: IL-9+ Th9 differentiation: unit not given here; conditions: for IL-9+ Th9 differentiation: flow cytometry, individual replicates, n = 6
Experimental: IL-9 expression peaked at 10 μM, which was used for all subsequent experiments (Figure 1D).
(§1) Naive CD4^+ T cells were isolated from the spleens of C57BL/6J or CD45.1^+ OT-II mice using the MojoSort Mouse CD4 Naive T Cell Isolation Kit (BioLegend, catalog 480040), following the manufacturer’s protocol. Purified cells were cultured in RPMI-1640 medium supplemented with 10% FBS, 1% penicillin-streptomycin, and 0.1% β-mercaptoethanol (Gibco, catalog 21985023).
(§2) T cell polarization was initiated under plate-bound anti-CD3 (2 μg/mL, clone 17A2, BioXCell, catalog BE0002) and soluble anti-CD28 (1 μg/mL, clone 37.51, BioXCell, catalog BE0015-1) stimulation, with the addition of cytokines and neutralizing antibodies specific to each subset. For Th9 cells, these included IL-4 (10 ng/mL, Peprotech, catalog 400-04), TGF-β (1 ng/mL, EPOTO Biotech, catalog HF-2021), anti–IL-12 (5 μg/mL, clone C17.8, BioXCell, catalog BE0051), and anti–IFN-γ (10 μg/mL, clone XMG1.2, BioXCell, catalog BE0055); for Th1 cells, these included IL-12 (10 ng/mL, GenScript, catalog Z03211-50) and anti–IL-4 (5 μg/mL, clone 11B11, BioXCell, catalog BE0045); for Th2 cells, these included IL-4 (50 ng/mL), anti–IFN-γ (20 μg /mL), anti–IL-12 (5 μg/mL), Th17 cells: IL-6 (20 ng/mL, EPOTO Biotech, catalog MF-1006), TGF-β (1 ng/mL), IL-1β (10 ng/mL, Peprotech, catalog AF-211-11B), anti–IFN-γ (10 μg/mL), anti–IL-12 (5 μg/mL), and anti–IL-4 (5 μg/mL); and for Tregs, these included TGF-β (3 ng/mL). After 3 days of initial culture, cells were either collected for downstream assays or continued in extended culture with refreshed cytokines to maintain lineage commitment.
During the entire culture period, experimental groups were treated continuously with the indicated compound at the designated concentration, whereas control groups received an equal volume of DMSO.
BioLegend, Cat. No. 422301 or Mouse TruStain FcX™, BioLegend, Cat. No. 101319) for 10 minutes at 4°C. For surface marker detection, cells were stained with fluorochrome-conjugated monoclonal antibodies in 96-well V-bottom plates and incubated on ice for 30 minutes. After staining, cells were washed twice and resuspended in FACS buffer for analysis.
Prior to intracellular cytokine staining, cells were restimulated for 4 hours with PMA (Absin, Cat. No. abs9107), ionomycin (Sigma-Aldrich, Cat. No. I0634), and brefeldin A (MedChemExpress, Cat. No. HY-16592). For intracellular cytokine staining, cells were first surface-stained as described above, then fixed and permeabilized using the BD Cytofix/Cytoperm™ kit (BD Biosciences, Cat. No. 554714) according to the manufacturer ’s protocol. Intracellular proteins were stained with directly conjugated antibodies targeting IL-9, IL-17a, IL-4, IFN-γ, TNF-α, FOXP3, p-ZAP70, Perforin, and […]

Th17 cells = assay: Th17 polarization, IL-17 by flow cytometry (Figure 1H)
Experimental: as §1
as §2, with “After 3 days of initial culture, cells were either collected for downstream assays or continued in extended culture with refreshed cytokines to maintain lineage commitment.” left out

Th9 cells [2] = assay: Intracellular ATP assay, luminescence (Figure 4L); conditions: result in words
Experimental: Intracellular adenosine triphosphate (ATP) levels were measured using a chemiluminescent ATP assay kit (Beyotime, catalog S0026) according to the manufacturer’s protocol. Briefly, cells were lysed and incubated with the luciferase-based detection reagent, and the resulting luminescent signal was detected using an Infinite M200 multimode microplate reader (TECAN). ATP concentrations were calculated based on a standard curve and normalized to cell number or protein content where applicable.

## anteiso-C15 Leu7 surfactin [EpA]
Th9 cells [1]; EpA 1 μM
  IL-9+ Th9 differentiation: 49.4 and 48.8 and 36.1 and 37.3 and 36.5 and 50.3
Th9 cells [1]; EpA 10 μM
  IL-9+ Th9 differentiation: 82.5 and 80.4 and 79.9 and 77.4 (2×) and 76.3
Th9 cells [1]; EpA 20 μM
  IL-9+ Th9 differentiation: 52.4 and 52.2 and 48.1 and 34.8 and 36 and 37.3
Th9 cells [1]; increasing concentrations of EpA
  concentration at which IL-9 expression peaked: 10 µM
Th17 cells; EpA 10 μM, individual replicates, n = 4
  IL-17 expression under Th17 polarization: 31.3 and 30.4 and 30.7 and 33.1
Th17 cells; result in words
  effect on Th17 polarization: did not affect
Th9 cells [2]
  intracellular ATP levels: significantly elevated
